Test results as given in patent US20240002450A1 (priority 2020, published 2024).
Bridge positions count the residues as written; N and C are the ends. Square brackets hold non-standard residues; d marks the D form. Peptide text beside a SMILES is read from it. S5 = C=CCCC[C@](C)(N)C(=O)O; βAla = NCCC(=O)O

Tested on: Makona variant of EBOV
Type: cell-based, Ebola virus

| Molecule | antiviral activity (prevention of EBOV infection) |
| --- | --- |
| HX1WTKNITX2KINQIIHDFVNK, wherein X1 is (R)-2-(7′-octenyl) alanine and X2 is (S)-2-(4′-pentenyl)Alanine [SEboV-1] | displayed antiviral activity |
| HX1WTKX2ITDKINQIIHDFVNK, wherein each of X1 and X2 is (S)-2-(4′-pentenyl)Alanine [SEboV-2] | displayed antiviral activity |

Tested on: Zaire Ebola virus
Type: cell-based

| Molecule | infected cells after 24 hours of infection | inhibition of virus infection at six hours post-infection |
| --- | --- | --- |
| HDWTKNITDKIX1QIIX2DFVDK, wherein each of X1 and X2 is (S)-2-(4′-pentenyl)Alanine [Ac9] | almost no infected cells | inhibited the virus |
| HDWTX1NIX2DKIX3QIIHDFVDK, wherein X1 is (S)-2-(4′-pentenyl)Alanine, X2 is 2,2-bis(4-pentenyl)glycine, and X3 is (S)-2-(4′-pentenyl)Alanine [Ac5] | almost no infected cells | inhibited the virus |
| HX1WTKX2ITDKIDQIIHDFVDK, wherein each of X1 and X2 is (S)-2-(4′-pentenyl)Alanine [Ac3] | almost no infected cells | inhibited the virus |
| X1DWTKNIX2DKIDQIIHDFVDK, wherein X1 is (R)-2-(7′-octenyl) alanine and X2 is (S)-2-(4′-pentenyl)Alanine [Ac4] | almost no infected cells | inhibited the virus |

Tested on: Huh-7 hepatocellular carcinoma cells

| Molecule | cell permeability (ability to enter cells) |
| --- | --- |
| CC[C@H](C)[C@H](NC(=O)[C@H](CCC(N)=O)NC(=O)[C@H](CC(N)=O)NC(=O)[C@@H](NC(=O)[C@]1(C)CCCC=CCCC[C@](C)(NC(=O)[C@H](CCCCN)NC(=O)[C@@H](NC(=O)[C@H](Cc2c[nH]c3ccccc23)NC(=O)[C@H](CC(N)=O)NC(=O)[C@H](Cc2c[nH]cn2)NC(=O)CCNC(C)=O)[C@@H](C)O)C(=O)N[C@@H]([C@@H](C)CC)C(=O)N[C@@H]([C@@H](C)O)C(=O)N[C@@H](CC(N)=O)C(=O)N1)[C@@H](C)CC)C(=O)N[C@H](C(=O)N[C@@H](Cc1c[nH]cn1)C(=O)N[C@@H](CC(=O)O)C(=O)N[C@@H](Cc1ccccc1)C(=O)N[C@H](C(=O)N[C@@H](CC(N)=O)C(=O)N[C@@H](CCCCN)C(N)=O)C(C)C)[C@@H](C)CC [SEboV-9, HNWTKX1ITNX2INQIIHDFVNK, wherein each of X1 and X2 is (S)-2-(4′-pentenyl)Alanine] (Ac-[βAla]HNWTK[S5]ITN[S5]INQIIHDFVNK-NH2; staple 7-11) | readily penetrated cells |
| CC[C@H](C)[C@H](NC(=O)[C@H](CCCCN)NC(=O)[C@H](CC(=O)O)NC(=O)[C@@H](NC(=O)[C@@H](NC(=O)[C@H](CC(N)=O)NC(=O)[C@H](CCCCN)NC(=O)[C@@H](NC(=O)[C@H](Cc1c[nH]c2ccccc12)NC(=O)[C@H](CC(=O)O)NC(=O)[C@H](Cc1c[nH]cn1)NC(=O)CCNC(C)=O)[C@@H](C)O)[C@@H](C)CC)[C@@H](C)O)C(=O)N[C@@H](CC(=O)O)C(=O)N[C@@H](CCC(N)=O)C(=O)N[C@H](C(=O)N[C@H](C(=O)N[C@@H](Cc1c[nH]cn1)C(=O)N[C@@H](CC(=O)O)C(=O)N[C@@H](Cc1ccccc1)C(=O)N[C@H](C(=O)N[C@@H](CC(=O)O)C(=O)N[C@@H](CCCCN)C(N)=O)C(C)C)[C@@H](C)CC)[C@@H](C)CC [WT EboV, reference compound] | not cell permeable |
